The values below come from ChEMBL document CHEMBL4376803, “Recent Advances in the Exploration of Therapeutic Analogues of Gramicidin S, an Old but Still Potent Antimicrobial Peptide” (J Med Chem, 2019).

In brackets after ≈: the same amount, converted by molar mass. Square brackets hold non-standard residues; d marks the D form. Peptide text beside a SMILES is read from it. Some results are limits rather than exact numbers.

A short description of data set [1]: Hemolytic activity in sheep RBC incubated for 30 mins. The data set is classed as ADME, cell-based, Ovis aries, Erythrocyte. The note with it: sheep red blood cells.
Data set [2] concerns Staphylococcus aureus. The experiment in a line: Antibacterial activity against Staphylococcus aureus NBRC 12732 after overnight incubation by microplate dilution method. The data set is classed as functional.
For data set [3], the system named is Bacillus subtilis. The experiment in a line: Antibacterial activity against Bacillus subtilis NBRC 3513 after overnight incubation by microplate dilution method. Format: functional.
Data set [4] concerns Escherichia coli. The experiment in a line: Antibacterial activity against Escherichia coli NBRC 12734 after overnight incubation by microplate dilution method. The data set is classed as functional.
For data set [5], the system named is Priestia megaterium. As to the kind of experiment: Antibacterial activity against Bacillus megaterium ATCC 19213 after overnight incubation by microplate dilution method. The data set is classed as functional.
Data set [6] has as its system Pseudomonas aeruginosa. The experiment in a line: Antibacterial activity against Pseudomonas aeruginosa NBRC 3080 after overnight incubation by microplate dilution method. Format: functional.
A short description of data set [7]: Haemolytic activity in human erythrocytes incubated for 30 mins. Format: ADME, cell-based, Erythrocyte.
Data set [8] deals with Staphylococcus aureus. The experiment in a line: Antibacterial activity against Staphylococcus aureus 209P incubated for 20 hrs by liquid microdilution method. Format: functional. A general note: Dilution methods test growth across graded concentrations, often in twofold steps.
Data set [9] deals with Escherichia coli. As to the kind of experiment: Antibacterial activity against Escherichia coli K-12 strain W3110 incubated for 20 hrs by liquid microdilution method. The settings on record: K-12 substr. W3110, 20 h. Format: functional.
Data set [10] has as its system Escherichia coli. The experiment in a line: Antibacterial activity against Escherichia coli ATCC 25922 after overnight incubation. The data set is classed as functional.
In data set [11] the test system is Staphylococcus aureus. The experiment in a line: Antibacterial activity against Staphylococcus aureus ATCC 29213 after overnight incubation. Format: functional.
The test system of data set [12] is Enterococcus faecalis. As to the kind of experiment: Antibacterial activity against Enterococcus faecalis ATCC 29212 after overnight incubation. The data set is classed as functional.
The subject of data set [13] is Staphylococcus aureus. As to the kind of experiment: Antibacterial activity against Staphylococcus aureus ATCC 29213 after 24 hrs. Format: functional. The note with it: ATCC 29213, 24 h.
Data set [14] relates to Enterococcus faecalis. The experiment in a line: Antibacterial activity against Enterococcus faecalis ATCC 29212 after 24 hrs. Format: functional. The settings on record: ATCC 29212, 24 h.
In data set [15] the test system is Escherichia coli. The experiment in a line: Antibacterial activity against Escherichia coli ATCC 25922 after 24 hrs. Format: functional. The settings on record: ATCC 25922, 24 h.
For data set [16], the system named is Pseudomonas aeruginosa. The experiment in a line: Antibacterial activity against Pseudomonas aeruginosa ATCC 27853 incubated for 24 hrs. The note with it: ATCC 27853, 24 h. Format: functional.
The subject of data set [17] is Staphylococcus aureus. The experiment in a line: Antibacterial activity against Staphylococcus aureus 7323. The data set is classed as functional.
For data set [18], the system named is Pseudomonas aeruginosa. The experiment in a line: Antibacterial activity against Pseudomonas aeruginosa ATCC 19582 after 24 hrs by broth dilution method. Format: functional. The settings on record: ATCC 19582, 24 h.
Data set [19] in a line: Hemolytic activity against RBC (unknown origin) at 100 ul after 4 hrs. Format: ADME, cell-based, Erythrocyte. The settings on record: red blood cells (unknown origin).
For data set [20], the system named is Enterococcus faecalis. As to the kind of experiment: Antibacterial activity against Enterococcus faecalis 1131 after 24 hrs by broth dilution method. Format: functional. The note with it: Enterococcus faecalis, 1131, 24 h.
Data set [21] relates to Escherichia coli. As to the kind of experiment: Antibacterial activity against Escherichia coli ATCC 25922 after 24 hrs by broth dilution method. The data set is classed as functional. The settings on record: ATCC 25922, 24 h.
Data set [22] concerns Staphylococcus aureus. As to the kind of experiment: Antibacterial activity against Staphylococcus aureus K147 after overnight incubation by microtiter dilution method. The data set is classed as functional.
Data set [23] in a line: Therapeutic index, ratio of HD100 for hemolytic activity in human RBC to MIC against Staphylococcus aureus K147. The data set is classed as toxicity. The note with it: human red blood cells, read-out: TI.
The test system of data set [24] is Erythrocyte. As to the kind of experiment: Haemolytic activity in human RBC after 4 hrs by visual method. Format: ADME, cell-based.
Data set [25] concerns Candida albicans. The experiment in a line: Antibacterial activity against Candida albicans after overnight incubation by microtiter dilution method. Format: functional.
For data set [26], the system named is Escherichia coli. The experiment in a line: Antibacterial activity against Escherichia coli UB1005 after overnight incubation by microtiter dilution method. The data set is classed as functional.
Data set [27] can be described thus: Therapeutic index, ratio of HD100 for hemolytic activity in human RBC to MIC against Escherichia coli UB1005. The data set is classed as toxicity. The note with it: human red blood cells, read-out: TI.
For data set [28], the target named is Lipopolysaccharide (LPS). As to the kind of experiment: Displacement of Dansyl-polymyxin from Pseudomonas aeruginosa LPS by fluorescence method. The settings on record: read-out: I50.
Data set [29] relates to Enterococcus faecalis. As to the kind of experiment: Antibacterial activity against Enterococcus faecalis ATCC 29212 after overnight incubation by microtiter dilution method. Format: functional.
Data set [30] has as its system Pseudomonas aeruginosa. As to the kind of experiment: Antibacterial activity against Pseudomonas aeruginosa H187 after overnight incubation by microtiter dilution method. The data set is classed as functional.
Data set [31] can be described thus: Therapeutic index, ratio of HD100 for hemolytic activity in human RBC to MIC against Enterococcus faecalis ATCC 29212. The data set is classed as toxicity. The settings on record: human red blood cells, read-out: TI.
Data set [32] is described as follows: Therapeutic index, ratio of HD100 for hemolytic activity in human RBC to MIC against Pseudomonas aeruginosa H187. The data set is classed as toxicity. The note with it: human red blood cells, read-out: TI.

For orientation: HC50 means the concentration that lyses half of the red blood cells. A lower HC50 goes with stronger haemolysis. As a reminder, the MIC is the least concentration at which growth counts as inhibited. High values mean weaker potency, low ones greater potency. As for `CC(C)C[C@@H]1NC(=O)[C@H](CCCN)NC(=O)[C@H](C(C)C)NC(=O)[C@@H]2CCCN2C(=O)[C@@H](Cc2ccccc2)NC(=O)[C@H](CC(C)C)NC(=O)[C@H](CCCN)NC(=O)[C@H](C(C)C)NC(=O)[C@@H]2CCCN2C(=O)NC(=O)[C@H](Cc2ccccc2)NC(=O)[C@H](CCCCN)NC1=O`, the HC50 at 0.5 h in data set [1] is > 100 µg/mL. In addition, the MIC in data set [2] amounted to 3.13 µg/mL (≈ 2.38 µM); in [3], 3.13 µg/mL (≈ 2.38 µM); in data set [4], 25 µg/mL (≈ 19 µM); in data set [5] it was 3.13 µg/mL (≈ 2.38 µM); in data set [6], 100 µg/mL (≈ 76.2 µM).

As to `CC(C)C[C@@H]1NC(=O)[C@H](CCCN)NC(=O)[C@H](C(C)C)NC(=O)[C@@H]2C[C@@H](N[C@@H](CCCCN)C(=O)O)CN2C(=O)[C@@H](Cc2ccccc2)NC(=O)[C@H](CC(C)C)NC(=O)[C@H](CCCN)NC(=O)[C@H](C(C)C)NC(=O)[C@@H]2C[C@@H](N[C@@H](CCCCN)C(=O)O)CN2C(=O)[C@@H](Cc2ccccc2)NC1=O` [listing 1 of 2 here], in data set [7], the concentration for 50% haemolysis (HC50) at 0.5 h is > 100 µg/mL.

For the compound `CC(C)C[C@@H]1NC(=O)[C@H](CCCN)NC(=O)[C@H](C(C)C)NC(=O)[C@@H]2C[C@@H](N[C@@H](CCCCN)C(=O)O)CN2C(=O)[C@@H](Cc2ccccc2)NC(=O)[C@H](CC(C)C)NC(=O)[C@H](CCCN)NC(=O)[C@H](C(C)C)NC(=O)[C@@H]2C[C@@H](N[C@@H](CCCCN)C(=O)O)CN2C(=O)[C@@H](Cc2ccccc2)NC1=O` [listing 2 of 2 here], the MIC in data set [8] amounted to 8 µg/mL (≈ 5.6 µM); in data set [9], 16 µg/mL (≈ 11.2 µM).

For `CC(C)C[C@@H]1NC(=O)[C@H](CCCN)NC(=O)[C@H](C(C)C)NC(=O)[C@@H]2CCCN2C(=O)[C@@H](Cc2ccc(OCc3ccccc3)cc2)NC(=O)[C@H](CC(C)C)NC(=O)[C@@H](CCCN)NC(=O)[C@H](C(C)C)NC(=O)[C@@H]2CCCN2C(=O)[C@@H](Cc2ccc(OCc3ccccc3)cc2)NC1=O`, the minimal inhibitory concentration (MIC) was determined as 64 µg/mL (≈ 47.3 µM) in data set [10], 8 µg/mL (≈ 5.91 µM) in data set [11] and 8 µg/mL (≈ 5.91 µM) in [12].

Turning to `NCCC[C@@H]1NC(=O)[C@H](C23CC4CC(CC(C4)C2)C3)NC(=O)[C@@H]2CCCN2C(=O)[C@@H](Cc2ccccc2)NC(=O)[C@H](C23CC4CC(CC(C4)C2)C3)NC(=O)[C@H](CCCN)NC(=O)[C@H](C23CC4CC(CC(C4)C2)C3)NC(=O)[C@@H]2CCCN2C(=O)[C@@H](Cc2ccccc2)NC(=O)[C@H](C23CC4CC(CC(C4)C2)C3)NC1=O`, the MIC in [13], in data set [14], in data set [15] and in [16] was > 64 µg/mL each time.

As to `CC(C)C[C@@H]1NC(=O)[C@H](CCCN)NC(=O)[C@H](C(C)C)NC(=O)[C@H](CCCCN)NC(=O)[C@@H](Cc2ccccc2)NC(=O)[C@H](CC(C)C)NC(=O)[C@@H](CCCN)NC(=O)[C@H](C(C)C)NC(=O)[C@H](CCCCN)NC(=O)[C@@H](Cc2ccccc2)NC1=O`, the HC50 at 0.5 h in data set [1] was > 200 µg/mL. Also, the MIC in data set [2] came to 3.13 µg/mL (≈ 2.6 µM); in data set [3], 6.25 µg/mL (≈ 5.19 µM); in data set [4], 25 µg/mL (≈ 20.8 µM); in data set [5] it was 3.13 µg/mL (≈ 2.6 µM); in data set [6], 50 µg/mL (≈ 41.5 µM).

With `CC(C)C[C@@H]1NC(=O)[C@H](CCCN)NC(=O)[C@H](C(C)C)NC(=O)[C@@H]2CCCN2C(=O)[C@@H](CCCCN)NC(=O)[C@H](CC(C)C)NC(=O)[C@@H](CCCN)NC(=O)[C@H](C(C)C)NC(=O)[C@@H]2CCCN2C(=O)[C@@H](CCCCN)NC1=O`, the HC50 at 0.5 h in data set [1] was in the range of 150 to 200 µg/mL. Further, the minimal inhibitory concentration (MIC) was 3.13 µg/mL (≈ 2.84 µM) in [2]; 6.25 µg/mL (≈ 5.66 µM) in data set [3]; 12.5 µg/mL (≈ 11.3 µM) in data set [4]; 3.13 µg/mL (≈ 2.84 µM) in data set [5]; 12.5 µg/mL (≈ 11.3 µM) in data set [6].

Consider `CC(C)C[C@@H]1NC(=O)[C@H](CCCN)NC(=O)[C@H](C(C)C)NC(=O)[C@@H]2CCCN2C(=O)[C@@H](Cc2c[nH]cn2)NC(=O)[C@H](CC(C)C)NC(=O)[C@@H](CCCN)NC(=O)[C@H](C(C)C)NC(=O)[C@@H]2CCCN2C(=O)[C@@H](Cc2ccccc2)NC1=O`, for which the MIC in [17] worked out at 4 µg/mL (≈ 3.54 µM); in [18], 16 µg/mL (≈ 14.1 µM); in data set [20], 16 µg/mL (≈ 14.1 µM); in [21], 8 µg/mL (≈ 7.07 µM). The same compound showed an HC50 at 4 h in data set [19] of 90 to 110 µg/mL.

Turning to `CC(C)C[C@@H]1NC(=O)[C@H](CCCCN)NC(=O)[C@H](C(C)C)NC(=O)[C@@H]2CCCN2C(=O)[C@@H](Cc2ccc(O)cc2)NC(=O)[C@H](CC(C)C)NC(=O)[C@H](CCCCN)NC(=O)[C@H](C(C)C)NC(=O)[C@H](CCCCN)NC(=O)[C@H](CC(C)C)NC(=O)[C@@H]2CCCN2C(=O)[C@@H](Cc2ccc(O)cc2)NC(=O)[C@H](C(C)C)NC(=O)[C@H](CCCCN)NC1=O` (cyclo(KLKV[dY]PLKVKL[dY]PV)), the MIC is > 200 µg/mL in data set [22]; 175 µg/mL (≈ 105 µM) in data set [25]; > 200 µg/mL in data set [26]; 2.3 µg/mL (≈ 1.38 µM) in data set [29]; > 200 µg/mL in data set [30]. Besides, the selectivity ratio in [23] is < 0.01; in data set [27] it was < 0.01; in data set [31], 0.7; in data set [32], < 0.01. The compound further returned an HD100 in [24] of 1.5 µg/mL. The IC50 in data set [28] was 3000 nM.
